Results: patent US20080234262A1 (Wyeth, priority 2007, published 2008)
Like-named read-outs stand apart in the source and are kept apart here.

Legend:
PI3K = PI3K (Homo sapiens, UniProt P42336); test: Fluorescence polarization assay for PI3K; format: biochemical;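 further: PI3K kinase reaction on PIP2 with ATP, 30-60 min, product sensed by GST-GRP with red probe in fluorescence polarization (mP), controls without enzyme and at zero time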
prostate line LNCap = test: In vitro cell culture growth assay (MTS), LNCap; format: cell-based, human; details: LNCap cells, three days after drug treatment;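 further: viable cell density read by absorbance at 490 nm, growth expressed as percent of vehicle-treated cells on the same plate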
breast line MDA468 = test: In vitro cell culture growth assay (MTS), MDA468; format: cell-based, human; details: MDA468 cells, three days after drug treatment
Summary of the method: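 Three-day drug treatment starting 1 day post-plating; viable cells quantified via MTS metabolism (A490); effect normalised to in-plate vehicle controls as % growth.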

Sequence of PI3K (P42336 whole entry): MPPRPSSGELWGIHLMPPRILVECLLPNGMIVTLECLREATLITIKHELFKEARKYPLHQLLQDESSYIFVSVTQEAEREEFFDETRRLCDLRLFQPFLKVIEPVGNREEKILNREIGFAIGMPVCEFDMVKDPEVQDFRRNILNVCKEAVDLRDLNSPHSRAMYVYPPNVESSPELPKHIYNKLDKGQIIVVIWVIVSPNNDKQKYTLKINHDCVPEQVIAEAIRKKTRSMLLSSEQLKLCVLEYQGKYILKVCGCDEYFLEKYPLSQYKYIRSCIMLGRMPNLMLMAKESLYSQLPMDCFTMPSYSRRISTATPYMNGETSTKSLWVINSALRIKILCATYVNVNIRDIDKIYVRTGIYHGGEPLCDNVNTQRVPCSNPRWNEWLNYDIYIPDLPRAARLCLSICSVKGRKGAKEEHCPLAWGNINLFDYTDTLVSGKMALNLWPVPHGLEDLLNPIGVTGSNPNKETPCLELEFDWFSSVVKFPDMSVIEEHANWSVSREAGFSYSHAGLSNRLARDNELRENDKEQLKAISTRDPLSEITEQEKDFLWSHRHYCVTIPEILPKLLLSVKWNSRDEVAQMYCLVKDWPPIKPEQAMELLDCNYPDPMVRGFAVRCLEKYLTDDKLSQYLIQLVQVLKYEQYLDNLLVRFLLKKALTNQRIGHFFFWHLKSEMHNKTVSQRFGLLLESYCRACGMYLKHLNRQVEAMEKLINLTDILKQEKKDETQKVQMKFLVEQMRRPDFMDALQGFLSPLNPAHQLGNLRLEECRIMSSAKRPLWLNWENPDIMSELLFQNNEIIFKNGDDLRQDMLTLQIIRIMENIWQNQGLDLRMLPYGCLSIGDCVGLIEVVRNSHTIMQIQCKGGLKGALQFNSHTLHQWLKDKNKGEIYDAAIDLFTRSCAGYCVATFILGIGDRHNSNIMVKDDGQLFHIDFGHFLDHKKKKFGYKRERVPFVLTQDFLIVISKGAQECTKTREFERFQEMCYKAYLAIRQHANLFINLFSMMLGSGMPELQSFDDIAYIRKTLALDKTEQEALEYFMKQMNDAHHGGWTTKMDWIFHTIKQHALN
Sequence of PI3K (P27986 whole entry partner): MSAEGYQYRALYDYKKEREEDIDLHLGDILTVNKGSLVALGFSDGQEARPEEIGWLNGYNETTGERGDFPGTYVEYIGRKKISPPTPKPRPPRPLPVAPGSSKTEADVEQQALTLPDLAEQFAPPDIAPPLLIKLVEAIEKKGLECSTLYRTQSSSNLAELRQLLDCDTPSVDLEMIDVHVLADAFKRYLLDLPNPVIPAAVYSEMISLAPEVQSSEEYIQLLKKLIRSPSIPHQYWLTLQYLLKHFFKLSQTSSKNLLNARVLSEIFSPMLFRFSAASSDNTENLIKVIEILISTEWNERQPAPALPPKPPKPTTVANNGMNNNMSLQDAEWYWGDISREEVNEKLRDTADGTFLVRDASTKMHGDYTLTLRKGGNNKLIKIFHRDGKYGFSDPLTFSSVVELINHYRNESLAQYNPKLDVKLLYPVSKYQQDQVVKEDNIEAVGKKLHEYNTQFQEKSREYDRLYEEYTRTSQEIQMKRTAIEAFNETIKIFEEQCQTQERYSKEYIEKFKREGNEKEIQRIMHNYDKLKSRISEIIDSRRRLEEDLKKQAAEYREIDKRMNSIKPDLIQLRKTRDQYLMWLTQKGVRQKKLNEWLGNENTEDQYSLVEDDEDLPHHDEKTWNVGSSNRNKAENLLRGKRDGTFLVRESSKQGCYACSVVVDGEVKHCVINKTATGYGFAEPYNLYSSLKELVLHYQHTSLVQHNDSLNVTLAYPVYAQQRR

IC50 (PI3K; PI3Kα, read-out: PI3Kα IC50)	IC50 (prostate line LNCap; Homo sapiens, LNCaP, 72 h)	IC50 (prostate line LNCap)	Compound	IC50 (breast line MDA468; Homo sapiens, 72 h)	IC50 (PI3K; PI3Kα IC50, PI3Kα)	IC50 (prostate line LNCap; Homo sapiens, 72 h)	IC50 (breast line MDA468)
645 nM	2300 nM	–	COC(=O)N1CCC(n2ncc3c(N4CCOCC4)nc(-c4ccc(NC(=O)OCCN(C)C)cc4)nc32)CC1 [Compound 904, methyl 4-{6-[4-({[2-(dimethylamino)ethoxy]carbonyl}amino)phenyl]-4-morpholin-4-yl-1H-pyrazolo[3,4-d]pyrimidin-1-yl}piperidine-1-carboxylate]	7800 nM	–	–	–
14 nM	–	35 nM	O=C(Nc1ccc(-c2nc(N3CCOCC3)c3cnn(C4CCN(C(=O)c5cccnc5)CC4)c3n2)cc1)Nc1cccs1 [Compound 657, 1-(4-{4-morpholin-4-yl-1-[1-(pyridin-3-ylcarbonyl)piperidin-4-yl]-1H-pyrazolo[3,4-d]pyrimidin-6-yl}phenyl)-3-(2-thienyl)urea]	40 nM	–	–	–
9000 nM	12000 nM	–	CN(C)CC(=O)Nc1ccc(-c2nc(N3CCOCC3)c3cnn(C4CCCCO4)c3n2)cc1 (stereo not drawn) [Compound 275]	40000 nM	–	–	–
–	–	–	COC(=O)N1CCC(n2ncc3c(N4CCOCC4)nc(-c4ccc(NC(=O)Oc5ccccc5F)cc4)nc32)CC1 [Compound 866, methyl 4-[6-(4-{[(2-fluorophenoxy)carbonyl]amino}phenyl)-4-morpholin-4-yl-1H-pyrazolo[3,4-d]pyrimidin-1-yl]piperidine-1-carboxylate]	30000 nM	12000 nM	12000 nM	–
173 nM	400 nM	–	C#CCNC(=O)Nc1ccc(-c2nc(N3CCOCC3)c3cnn(C4CCN(Cc5ccccc5)CC4)c3n2)cc1 [Compound 557, 1-{4-[1-(1-benzylpiperidin-4-yl)-4-morpholin-4-yl-1H-pyrazolo[3,4-d]pyrimidin-6-yl]phenyl}-3-prop-2-yn-1-ylurea]	3900 nM	–	–	–
34 nM	–	< 27 nM	O=C(Nc1ccc(-c2nc(N3CCOCC3)c3cnn(C4CCN(C(=O)c5ccccc5)CC4)c3n2)cc1)Nc1cccnc1 [Compound 624, 1-{4-[1-(1-benzoylpiperidin-4-yl)-4-morpholin-4-yl-1H-pyrazolo[3,4-d]pyrimidin-6-yl]phenyl}-3-pyridin-3-ylurea]	< 27 nM	–	–	–
2670 nM	3800 nM	–	CC(c1ccccc1)N1CCC(n2ncc3c(N4CCOCC4)nc(-c4ccc5[nH]ccc5c4)nc32)CC1 (stereo not drawn) [Compound 490, 6-(1H-indol-5-yl)-4-morpholin-4-yl-1-[1-(1-phenylethyl)piperidin-4-yl]-1H-pyrazolo[3,4-d]pyrimidine]	3500 nM	–	–	–
23 nM	500 nM	–	CNC(=O)Nc1ccc(-c2nc(N3CCOCC3)c3cnn(C4CCNCC4)c3n2)cc1 [Example 338, 1-methyl-3-[4-(4-morpholin-4-yl-1-piperidin-4-yl-1H-pyrazolo[3,4-d]pyrimidin-6-yl)phenyl]urea]	1300 nM	–	–	–
122 nM	7000 nM	–	O=CNc1ccc(-c2nc(N3CCOCC3)c3cnn(-c4ccccc4)c3n2)cc1 [Compound 118]	20000 nM	–	–	–
11 nM	31 nM	–	O=C(Nc1ccccc1)Nc1ccc(-c2nc(N3CCOCC3)c3cnn(C4CCN(Cc5cccnc5)CC4)c3n2)cc1 [Compound 586, 1-(4-{4-morpholin-4-yl-1-[1-(pyridin-3-ylmethyl)piperidin-4-yl]-1H-pyrazolo[3,4-d]pyrimidin-6-yl}phenyl)-3-phenylurea]	220 nM	–	–	–
3000 nM	7000 nM	–	c1ccc(CN2CCC(n3ncc4c(N5CCOCC5)nc(-c5ccn[nH]5)nc43)CC2)cc1 [Compound 188]	19000 nM	–	–	–
2260 nM	600 nM	–	CC(C)C(=O)N1CCC(n2ncc3c(N4CCOCC4)nc(-c4ccc(NC(=O)Nc5ccccn5)cc4)nc32)CC1 [Compound 827, 1-{4-[1-(1-isobutyrylpiperidin-4-yl)-4-morpholin-4-yl-1H-pyrazolo[3,4-d]pyrimidin-6-yl]phenyl}-3-pyridin-2-ylurea]	16000 nM	–	–	–
445 nM	320 nM	–	CCOC(=O)N1CCC(n2ncc3c(N4CCOCC4)nc(-c4ccc(NC(=O)NCCO)cc4)nc32)CC1 [Compound 818, ethyl 4-[6-(4-{[(2-hydroxyethyl)carbamoyl]amino}phenyl)-4-morpholin-4-yl-1H-pyrazolo[3,4-d]pyrimidin-1-yl]piperidine-1-carboxylate]	250 nM	–	–	–
1140 nM	250 nM	–	COC(=O)Nc1ccc(-c2nc(N3CCOCC3)c3cnn(C4CCN(C(=O)c5ccccc5F)CC4)c3n2)cc1 [Example 443, methyl (4-{1-[1-(2-fluorobenzoyl)piperidin-4-yl]-4-morpholin-4-yl-1H-pyrazolo[3,4-d]pyrimidin-6-yl}phenyl)carbamate]	500 nM	–	–	–
268 nM	250 nM	–	C=CCNC(=O)Nc1ccc(-c2nc(N3CCOCC3)c3cnn(C4CCN(Cc5ccccc5)CC4)c3n2)cc1 [Compound 509, 1-allyl-3-{4-[1-(1-benzylpiperidin-4-yl)-4-morpholin-4-yl-1H-pyrazolo[3,4-d]pyrimidin-6-yl]phenyl}urea]	1800 nM	–	–	–
600 nM	27 nM	–	CCCOC(=O)N1CCC(n2ncc3c(N4CCOCC4)nc(-c4ccc(NC(=O)NCCF)cc4)nc32)CC1 [Compound 854, propyl 4-[6-(4-{[(2-fluoroethyl)carbamoyl]amino}phenyl)-4-morpholin-4-yl-1H-pyrazolo[3,4-d]pyrimidin-1-yl]piperidine-1-carboxylate]	330 nM	–	–	–
–	–	–	CNC(=O)Oc1ccc(-c2nc(N3CCOCC3)c3cnn(C4CCN(C(=O)OC)CC4)c3n2)cc1 [Compound 946, methyl 4-(6-{4-[(methylcarbamoyl)oxy]phenyl}-4-morpholin-4-yl-1H-pyrazolo[3,4-d]pyrimidin-1-yl)piperidine-1-carboxylate]	7000 nM	13000 nM	1600 nM	–
1920 nM	5800 nM	–	CNC(=O)Nc1cccc(-c2nc(N3CCOCC3)c3cnn(C4CCN(Cc5ccccc5)CC4)c3n2)c1 [Compound 482, N-{3-[1-(1-benzylpiperidin-4-yl)-4-morpholin-4-yl-1H-pyrazolo[3,4-d]pyrimidin-6-yl]phenyl}-N′-methylurea]	6800 nM	–	–	–
590 nM	320 nM	–	O=C(NCC(F)(F)F)Nc1ccc(-c2nc(N3CCOCC3)c3cnn(C4CCN(Cc5ccccc5)CC4)c3n2)cc1 [Example 289, 1-{4-[1-(1-benzylpiperidin-4-yl)-4-morpholin-4-yl-1H-pyrazolo[3,4-d]pyrimidin-6-yl]phenyl}-3-(2,2,2-trifluoroethyl)urea]	1300 nM	–	–	–
311 nM	300 nM	–	O=C(Nc1cccnc1)N1CCC(n2ncc3c(N4CCOCC4)nc(-c4ccc5[nH]ccc5c4)nc32)CC1 [Compound 132]	1200 nM	–	–	–
16 nM	2200 nM	–	O=C(Nc1ccncc1)Nc1ccc(-c2nc(N3CCOCC3)c3cnn(C4CCNCC4)c3n2)cc1 [Compound 780, 1-[4-(4-morpholin-4-yl-1-piperidin-4-yl-1H-pyrazolo[3,4-d]pyrimidin-6-yl)phenyl]-3-pyridin-4-ylurea]	1500 nM	–	–	–
31 nM	300 nM	–	O=C(c1ccco1)N1CCC(n2ncc3c(N4CCOCC4)nc(-c4cccc(O)c4)nc32)CC1 [Example 22]	900 nM	–	–	–
100 nM	–	250 nM	CNC(=O)Nc1ccc(-c2nc(N3CCOCC3)c3cnn(C4CCN(C(=O)c5ccc(F)nc5)CC4)c3n2)cc1 [Compound 665, 1-[4-(1-{1-[(6-fluoropyridin-3-yl)carbonyl]piperidin-4-yl}-4-morpholin-4-yl-1H-pyrazolo[3,4-d]pyrimidin-6-yl)phenyl]-3-methylurea]	–	–	–	270 nM
30 nM	3000 nM	–	CNC(=O)Nc1ccc(-c2nc(N3CCOCC3)c3cnn(C4CCN(C(=O)Nc5cccnc5)CC4)c3n2)cc1 [Example 335, 4-(6-{4-[(methylcarbamoyl)amino]phenyl}-4-morpholin-4-yl-1H-pyrazolo[3,4-d]pyrimidin-1-yl)-N-pyridin-3-ylpiperidine-1-carboxamide]	2500 nM	–	–	–
124 nM	2000 nM	–	CNC(=O)Nc1ccc(-c2nc(N3CCOCC3)c3cnn(C4CCN(C(=O)CC(=O)OC)CC4)c3n2)cc1 [Compound 757, methyl 3-[4-(6-{4-[(methylcarbamoyl)amino]phenyl}-4-morpholin-4-yl-1H-pyrazolo[3,4-d]pyrimidin-1-yl)piperidin-1-yl]-3-oxopropanoate]	1100 nM	–	–	–
45 nM	5800 nM	–	Oc1cccc(-c2nc(N3CCOCC3)c3cnn(CCN4CCNCC4)c3n2)c1 [Compound 166]	15000 nM	–	–	–
75 nM	35 nM	–	CNC(=O)Nc1ccc(-c2nc(N3CCOCC3)c3cnn(C4CCN(C(=O)c5cccc(OC)c5)CC4)c3n2)cc1 [Compound 610, 1-(4-{1-[1-(3-methoxybenzoyl)piperidin-4-yl]-4-morpholin-4-yl-1H-pyrazolo[3,4-d]pyrimidin-6-yl}phenyl)-3-methylurea]	340 nM	–	–	–
47 nM	27 nM	–	CNC(=O)Nc1ccc(-c2nc(N3CCOCC3)c3cnn(C4CCN(Cc5ccc(Cl)nc5)CC4)c3n2)cc1 [Example 388, 1-[4-(1-{1-[(6-chloropyridin-3-yl)methyl]piperidin-4-yl}-4-morpholin-4-yl-1H-pyrazolo[3,4-d]pyrimidin-6-yl)phenyl]-3-methylurea]	–	–	–	100 nM

Compound	IC50 (PI3K; PI3Kα, read-out: PI3Kα IC50)	IC50 (prostate line LNCap; Homo sapiens, LNCaP, 72 h)	IC50 (prostate line LNCap)	IC50 (breast line MDA468; Homo sapiens, 72 h)	IC50 (PI3K; PI3Kα IC50, PI3Kα)	IC50 (prostate line LNCap; Homo sapiens, 72 h)	IC50 (breast line MDA468)
methyl [4-(1-{1-[(6-fluoropyridin-3-yl)methyl]piperidin-4-yl}-4-morpholin-4-yl-1H-pyrazolo[3,4-d]pyrimidin-6-yl)phenyl]carbamate [Compound 697]	1200 nM	–	900 nM	–	–	–	6000 nM
